Measured values published in ChEMBL document CHEMBL4219190, “Studies on synthesis of novel pyrido[2,3-d]pyrimidine derivatives, evaluation of their antimicrobial activity and molecular docking” (Bioorg Med Chem Lett, 2018).
≈ marks a conversion by molar mass, not a printed value. Calls of active or inactive are those of the source. The calls are words filed in the database; no cut-off is given here.

Legend:
Assay type in all cases: functional
Candida albicans [1] = assay: Antifungal activity against Candida albicans MTCC 3958 after 24 hrs by well diffusion method
Candida albicans [2] = assay: Fungicidal activity against Candida albicans MTCC 4748 incubated for 24 hrs followed by transfer of microbial suspension to Sabouraud dextrose agar plates and measured after 24 hrs post transfer
Candida albicans [3] = assay: Antifungal activity against Candida albicans MTCC 227 after 24 hrs by well diffusion method; details: MTCC 227, 24 h
Candida albicans [4] = assay: Fungicidal activity against Candida albicans MTCC 1637 incubated for 24 hrs followed by transfer of microbial suspension to Sabouraud dextrose agar plates and measured after 24 hrs post transfer
Staphylococcus aureus [5] = assay: Antibacterial activity against Staphylococcus aureus MLS16 MTCC 2940 after 24 hrs by well diffusion method
Candida parapsilosis [6] = assay: Antifungal activity against Candida parapsilosis MTCC 1744 after 24 hrs by well diffusion method
Staphylococcus aureus [7] = assay: Antibacterial activity against Staphylococcus aureus MTCC 96 after 24 hrs by well diffusion method
Candida albicans [8] = assay: Antifungal activity against Candida albicans MTCC 3017 after 24 hrs by well diffusion method; details: MTCC 3017, 24 h
Pseudomonas aeruginosa = assay: Antibacterial activity against Pseudomonas aeruginosa MTCC 2453 after 24 hrs by well diffusion method
Micrococcus luteus = assay: Antibacterial activity against Micrococcus luteus MTCC 2470 after 24 hrs by well diffusion method
Candida albicans [9] = assay: Antifungal activity against Candida albicans MTCC 7315 after 24 hrs by well diffusion method; details: MTCC 7315, 24 h
Bacillus subtilis = assay: Antibacterial activity against Bacillus subtilis MTCC 121 after 24 hrs by well diffusion method
Candida albicans [10] = assay: Antifungal activity against Candida albicans MTCC 4748 after 24 hrs by well diffusion method
Candida albicans [11] = assay: Fungicidal activity against Candida albicans MTCC 854 incubated for 24 hrs followed by transfer of microbial suspension to Sabouraud dextrose agar plates and measured after 24 hrs post transfer; details: MTCC 854, 24 h
Pichia sporocuriosa [12] = assay: Antifungal activity against Issatchenkia hanoiensis MTCC 4755 after 24 hrs by well diffusion method; details: MTCC 4755, 24 h
Candida parapsilosis [13] = assay: Fungicidal activity against Candida parapsilosis MTCC 1744 incubated for 24 hrs followed by transfer of microbial suspension to Sabouraud dextrose agar plates and measured after 24 hrs post transfer
Nakaseomyces glabratus [14] = assay: Antifungal activity against Candida glabrata MTCC 3019 after 24 hrs by well diffusion method; details: MTCC 3019, 24 h
Candida albicans [15] = assay: Fungicidal activity against Candida albicans MTCC 3018 incubated for 24 hrs followed by transfer of microbial suspension to Sabouraud dextrose agar plates and measured after 24 hrs post transfer
Pichia kudriavzevii [16] = assay: Fungicidal activity against Candida krusei MTCC 3020 incubated for 24 hrs followed by transfer of microbial suspension to Sabouraud dextrose agar plates and measured after 24 hrs post transfer; details: MTCC 3020, 24 h
Pichia sporocuriosa [17] = assay: Fungicidal activity against Issatchenkia hanoiensis MTCC 4755 incubated for 24 hrs followed by transfer of microbial suspension to Sabouraud dextrose agar plates and measured after 24 hrs post transfer; details: MTCC 4755, 24 h
Candida albicans [18] = assay: Fungicidal activity against Candida albicans MTCC 227 incubated for 24 hrs followed by transfer of microbial suspension to Sabouraud dextrose agar plates and measured after 24 hrs post transfer; details: MTCC 227, 24 h
Candida albicans [19] = assay: Antifungal activity against Candida albicans MTCC 854 after 24 hrs by well diffusion method; details: MTCC 854, 24 h
[Candida] aaseri [20] = Antifungal activity against Candida aaseri MTCC 1962 after 24 hrs by well diffusion method; details: Yamadazyma aaseri, MTCC 1962, 24 h
[Candida] aaseri [21] = Fungicidal activity against Candida aaseri MTCC 1962 incubated for 24 hrs followed by transfer of microbial suspension to Sabouraud dextrose agar plates and measured after 24 hrs post transfer; details: Yamadazyma aaseri, MTCC 1962, 24 h
Raoultella planticola = assay: Antibacterial activity against Klebsiella planticola MTCC 530 after 24 hrs by well diffusion method
Candida albicans [22] = assay: Fungicidal activity against Candida albicans MTCC 3017 incubated for 24 hrs followed by transfer of microbial suspension to Sabouraud dextrose agar plates and measured after 24 hrs post transfer; details: MTCC 3017, 24 h
Candida albicans [23] = assay: Antifungal activity against Candida albicans MTCC 3018 after 24 hrs by well diffusion method
Nakaseomyces glabratus [24] = assay: Fungicidal activity against Candida glabrata MTCC 3019 incubated for 24 hrs followed by transfer of microbial suspension to Sabouraud dextrose agar plates and measured after 24 hrs post transfer; details: MTCC 3019, 24 h
Candida albicans [25] = assay: Antifungal activity against Candida albicans MTCC 183 after 24 hrs by well diffusion method; details: MTCC 183, 24 h
Pichia kudriavzevii [26] = assay: Antifungal activity against Candida krusei MTCC 3020 after 24 hrs by well diffusion method; details: MTCC 3020, 24 h
Candida albicans [27] = assay: Fungicidal activity against Candida albicans MTCC 3958 incubated for 24 hrs followed by transfer of microbial suspension to Sabouraud dextrose agar plates and measured after 24 hrs post transfer
Candida albicans [28] = assay: Fungicidal activity against Candida albicans MTCC 183 incubated for 24 hrs followed by transfer of microbial suspension to Sabouraud dextrose agar plates and measured after 24 hrs post transfer; details: MTCC 183, 24 h
Candida albicans [29] = assay: Antifungal activity against Candida albicans MTCC 1637 after 24 hrs by well diffusion method
Candida albicans [30] = assay: Fungicidal activity against Candida albicans MTCC 7315 incubated for 24 hrs followed by transfer of microbial suspension to Sabouraud dextrose agar plates and measured after 24 hrs post transfer; details: MTCC 7315, 24 h
Escherichia coli = assay: Antibacterial activity against Escherichia coli MTCC 739 after 24 hrs by well diffusion method

CCCNC(=O)c1nc(-c2ccccc2)c2c(C(F)(F)F)cc(-c3ccccc3)nc2n1
MIC (Candida albicans [1]): inactive | MFC (Candida albicans [2]): inactive | MIC (Candida albicans [3]): 31.2 µg/mL (≈ 71.5 µM) | MFC (Candida albicans [4]): inactive | MIC (Staphylococcus aureus [5]): inactive | MIC (Candida parapsilosis [6]): inactive | MIC (Staphylococcus aureus [7]): inactive | MIC (Candida albicans [8]): 15.6 µg/mL (≈ 35.7 µM) | MIC (Pseudomonas aeruginosa): inactive | MIC (Micrococcus luteus): inactive | MIC (Candida albicans [9]): 15.6 µg/mL (≈ 35.7 µM) | MIC (Bacillus subtilis): inactive | MIC (Candida albicans [10]): inactive | MFC (Candida albicans [11]): 62.5 µg/mL (≈ 143 µM) | MIC (Pichia sporocuriosa [12]): 31.2 µg/mL (≈ 71.5 µM) | MFC (Candida parapsilosis [13]): inactive | MIC (Nakaseomyces glabratus [14]): 7.8 µg/mL (≈ 17.9 µM) | MFC (Candida albicans [15]): inactive | MFC (Pichia kudriavzevii [16]): 31.2 µg/mL (≈ 71.5 µM) | MFC (Pichia sporocuriosa [17]): 62.5 µg/mL (≈ 143 µM) | MFC (Candida albicans [18]): 31.2 µg/mL (≈ 71.5 µM) | MIC (Candida albicans [19]): 31.2 µg/mL (≈ 71.5 µM) | MIC ([Candida] aaseri [20]): 15.6 µg/mL (≈ 35.7 µM) | MFC ([Candida] aaseri [21]): 15.6 µg/mL (≈ 35.7 µM) | MIC (Raoultella planticola): inactive | MFC (Candida albicans [22]): 15.6 µg/mL (≈ 35.7 µM) | MIC (Candida albicans [23]): inactive | MFC (Nakaseomyces glabratus [24]): 15.6 µg/mL (≈ 35.7 µM) | MIC (Candida albicans [25]): 15.6 µg/mL (≈ 35.7 µM) | MIC (Pichia kudriavzevii [26]): 15.6 µg/mL (≈ 35.7 µM) | MFC (Candida albicans [27]): inactive | MFC (Candida albicans [28]): 31.2 µg/mL (≈ 71.5 µM) | MIC (Candida albicans [29]): inactive | MFC (Candida albicans [30]): 31.2 µg/mL (≈ 71.5 µM) | MIC (Escherichia coli): inactive
